pIC50: −log10 of the molar value.
Tests used:
[1] = test system: HaCaT; test: Cytotoxicity against human HaCaT cells assessed as reduction in cell viability after 48 hrs by MTT assay; assay type: cell-based
[2] = test system: HepG2; test: Cytotoxicity against human HepG2 cells assessed as reduction in cell viability after 48 hrs by MTT assay; assay type: functional, cell-based; details: HepG2, 48 h
[3] = test system: A549; test: Cytotoxicity against human A549 cells assessed as reduction in cell viability after 48 hrs by MTT assay; assay type: functional, cell-based; details: A549, 48 h
[4] = Cytotoxicity against human […] cells assessed as reduction in cell viability after 48 hrs by MTT assay; assay type: functional, cell-based
[5] = test system: MDA-MB-231; test: Cytotoxicity against human MDA-MB-231 cells assessed as reduction in cell viability after 48 hrs by MTT assay; assay type: functional, cell-based; details: MDA-MB-231, 48 h
[6] = test system: HeLa; test: Cytotoxicity against human HeLa cells assessed as reduction in cell viability after 48 hrs by MTT assay; assay type: functional, cell-based

| SMILES | pIC50 [1] | pIC50 [2] | pIC50 [3] | pIC50 [4] | pIC50 [5] | pIC50 [6] |
| --- | --- | --- | --- | --- | --- | --- |
| CC(=O)c1c(O)ccc2oc(-c3ccccc3C)nc12 | 5.05 | 4.93 | 4.70 | 4.76 | 4.52 | 4.72 |
| O=Cc1c(O)ccc2oc(-c3ccccc3Cl)nc12 | 4.92 | 4.98 | 5.11 | 4.85 | 5.25 | 4.85 |
| O=Cc1c(O)ccc2oc(-c3ccccc3[N+](=O)[O-])nc12 | 4.70 | 4.76 | 5.15 | 4.73 | 5.04 | 4.84 |
| CC(=O)c1c(O)ccc2oc(-c3ccccc3)nc12 | < 4.52 | < 4.52 | < 4.52 | < 4.52 | < 4.52 | < 4.52 |
| COc1cccc2c1C(=O)c1c(O)c3c(c(O)c1C2=O)C[C@@](O)(C(=O)CO)C[C@@H]3O[C@H]1C[C@H](N)[C@H](O)[C@H](C)O1 [DOXORUBICIN] | 6.28 | 6.28 | 6.47 | 5.80 |  | 6.96 |

— ChEMBL document CHEMBL4325881, “Facile synthesis of 2-aryl 5-hydroxy benzo[d]oxazoles and their in vitro anti-proliferative effects on various cancer cell lines” (Bioorg Med Chem Lett, 2018)
